Reference: patent US9243281B2, “Neuroprotective chemicals and methods for identifying and using same” (Board of Regents of The University of Texas System, priority 2013, dated 2016)

Columns and labels:
[1] = system: hippocampal neurogenesis (Dentate Gyrus); assay: in vivo neurogenesis assay (BrdU+ cells in dentate gyrus); design: species or system mice
Summary of the method: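 Pools of ten compounds infused into the left ventricle of two adult mice per pool via cannula and mini-pump over one week, aimed at mid-nanomolar levels. Daily BrdU co-injected; brain sections stained for BrdU to count new dentate gyrus cells.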

p70 (NAMPT) = target: T1, p70 (NAMPT) (Homo sapiens, UniProt P43490); assay: binding competition for photo-crosslinking of P7C3-S326 to p70 in H2122 cells; conditions: 0.3 μM P7C3-S326 plus 5 μM competitor, p70 band intensity, P7C3-S326 alone compared with plus competitor, vehicle 1.0
T1 construct: endogenous in cells; host or cells: H2122 lung cancer cells
T1 sequence (P43490 whole entry): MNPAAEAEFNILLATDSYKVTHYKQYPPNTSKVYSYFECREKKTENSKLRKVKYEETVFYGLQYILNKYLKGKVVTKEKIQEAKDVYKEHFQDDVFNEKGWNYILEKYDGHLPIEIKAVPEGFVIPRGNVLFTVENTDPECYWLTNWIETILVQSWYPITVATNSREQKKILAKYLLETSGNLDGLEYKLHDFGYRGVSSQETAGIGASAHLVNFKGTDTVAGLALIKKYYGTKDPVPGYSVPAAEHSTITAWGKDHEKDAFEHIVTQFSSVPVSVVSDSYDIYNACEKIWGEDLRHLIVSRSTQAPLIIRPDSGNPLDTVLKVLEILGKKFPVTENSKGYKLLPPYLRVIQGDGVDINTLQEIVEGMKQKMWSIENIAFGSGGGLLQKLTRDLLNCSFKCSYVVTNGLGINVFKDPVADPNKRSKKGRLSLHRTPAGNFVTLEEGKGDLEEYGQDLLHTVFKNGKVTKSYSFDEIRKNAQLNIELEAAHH
Summary of the method: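 H2122 cells were co-treated with 0.3 μM P7C3-S326 and 5 uM competing P7C3 analogs for 2 hours at 37° C, then UV-crosslinked at 306 nm for 15 minutes. Lysates were clicked to a fluorescent dye and run on SDS-PAGE. The p70 band was quantified relative to the DMSO control.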

[2] = living mice, vehicle (DMSO) 7.3

SMILES | Neurogenesis # BrdU+ Cells (X10E06)/mm3 Dentate Gyrus [1, 2] | Binding competition (p70 (NAMPT)) | Neurogenesis # BrdU+ Cells (X10E06)/mm3 Dentate Gyrus ([1]; mouse, in vivo)
O=C1CC2(CCCC2)CC(=O)N1CCCCN1CCN(c2ncccn2)CC1 [S127, Buspar, reference compound] | 6.9 (X10E06)/mm3 | 1.2 | –
CCOc1cccc(NCC(O)Cn2c3ccc(Br)cc3c3cc(Br)ccc32)c1 (stereo not drawn) [S24] | 8.0 (X10E06)/mm3 | 3.1 | –
CC(=O)NCCOCC(O)Cn1c2ccc(Br)cc2c2cc(Br)ccc21 (stereo not drawn) [S43] | 11.7 (X10E06)/mm3 | 1.7 | –
OCCCc1cn(CC(O)Cn2c3ccc(Br)cc3c3cc(Br)ccc32)nn1 (stereo not drawn) [S23] | 7.4 (X10E06)/mm3 | 2.1 | –
C=C/C=N\C=C\NCC(O)Cn1c2ccc(Br)cc2c2cc(Br)ccc21 (stereo not drawn) [S58] | 7.2 (X10E06)/mm3 | 2.5 | –
CN(C)CC(F)CN1c2ccccc2CCc2ccccc21 (stereo not drawn) [S148, reference compound] | 11.3 (X10E06)/mm3 | 1.3 | –
COc1ccc(S(=O)(=O)CC(O)Cn2c3ccc(Br)cc3c3cc(Br)ccc32)cc1 (stereo not drawn) [S84] | 12.8 (X10E06)/mm3 | 1.2 | –
OC(Cn1ccc2ccccc21)Cn1c2ccc(Br)cc2c2cc(Br)ccc21 (stereo not drawn) [S22] | 6.7 (X10E06)/mm3 | 2.7 | –
COc1cccc(NCC(O)Cn2c3ccc(Br)cc3c3cc(Br)ccc32)n1 (stereo not drawn) [S188] | 13.1 (X10E06)/mm3 | 3.1 | –
O=C(CCCCCC1SCC2NC(=O)NC21)NCCCCCOc1cccc(NCC(O)Cn2c3ccc(Br)cc3c3cc(Br)ccc32)c1 (stereo not drawn) [S219] | 8.4 (X10E06)/mm3 | 3.1 | –
OC(CSc1ccccc1)Cn1c2ccc(Br)cc2c2cc(Br)ccc21 (stereo not drawn) [S7] | 15.5 (X10E06)/mm3 | 2.0 | –
COc1cccc(NCC(O)Cn2c3ccc(Cl)cc3c3cc(Cl)ccc32)c1 (stereo not drawn) [S15] | 7.6 (X10E06)/mm3 | 5.3 | –
N=c1ccccn1CC(O)Cn1c2ccc(Br)cc2c2cc(Br)ccc21 (stereo not drawn) [S5] | 12.2 (X10E06)/mm3 | 1.4 | –
COc1cccc(NCC(O)Cn2c3ccc(C)cc3c3cc(Br)ccc32)c1 (stereo not drawn) [S14] | 13.5 (X10E06)/mm3 | 4.5 | –
O=S(=O)(CC(O)Cn1c2ccc(Br)cc2c2cc(Br)ccc21)c1ccccc1 (stereo not drawn) [S28] | 13.6 (X10E06)/mm3 | 2.8 | –
OC(CN1c2ccccc2CCc2ccccc21)Cn1ccc2ccccc21 (stereo not drawn) [S132] | 11.4 (X10E06)/mm3 | 1.3 | –
N#Cc1cc2c(cn1)[nH]c1ccc(Br)cc12 [S221] | 14.8 (X10E06)/mm3 | 2.9 | –
COc1ccc([C@H](CN(C)C)C2(O)CCCCC2)cc1 [S124, Effexor, reference compound] | 8.9 (X10E06)/mm3 | 1.1 | –
O=C(COc1ccc(NCC(F)Cn2c3ccc(Br)cc3c3cc(Br)ccc32)cc1)NCCO (stereo not drawn) [S71] | 7.2 (X10E06)/mm3 | 3.1 | –

SMILES | Neurogenesis # BrdU+ Cells (X10E06)/mm3 Dentate Gyrus [1, 2] | Binding competition (p70 (NAMPT)) | Neurogenesis # BrdU+ Cells (X10E06)/mm3 Dentate Gyrus ([1]; mouse, in vivo)
COc1cccc(SCC(O)Cn2c3ccc(Br)cc3c3cc(Br)ccc32)c1 (stereo not drawn) [S77] | 12.0 (X10E06)/mm3 | 3.3 | –
OC(COc1ccccc1)Cn1c2ccc(Br)cc2c2cc(Br)cnc21 (stereo not drawn) [S187] | 12.6 (X10E06)/mm3 | 2.9 | –
O=C(O)Cn1c2ccc(Br)cc2c2cc(C(=O)O)ccc21 [S239] | 11.4 (X10E06)/mm3 | 0.9 | –
OC(CSc1ccccc1)CN1c2ccccc2CCc2ccccc21 (stereo not drawn) [S134] | 9.7 (X10E06)/mm3 | 1.9 | –
CC(O)(COc1ccccc1)Cn1c2ccc(C#N)cc2c2cc(C#N)ccc21 (stereo not drawn) [S177] | 13.9 (X10E06)/mm3 | 4.3 | –
O=C(O)c1cc2c(cn1)[nH]c1ccc(Br)cc12 [S206] | 14.8 (X10E06)/mm3 | 1.4 | –
Cc1ccc2[nH]c3ccc(Br)cc3c2c1 [S228] | 20.2 (X10E06)/mm3 | 2.0 | –
O=C(O)c1cc2c3cc(Br)ccc3n(CC(O)COc3ccccc3)c2cn1 (stereo not drawn) [S173] | 12.8 (X10E06)/mm3 | 1.0 | –
OC(CNc1ccncc1)Cn1c2ccc(Br)cc2c2cc(Br)ccc21 (stereo not drawn) [S45] | 8.0 (X10E06)/mm3 | 1.2 | –
NC(COc1ccccc1)Cn1c2ccc(Br)cc2c2cc(Br)ccc21 (stereo not drawn) [S97] | 7.6 (X10E06)/mm3 | 2.0 | –
O=C(O)c1ccc2c(c1)c1cc(Br)ccc1n2CC(O)COc1ccccc1 (stereo not drawn) [S153] | 10.7 (X10E06)/mm3 | 1.4 | –
N#Cc1ccc2c(c1)c1ccccc1n2CC(O)COc1ccccc1 (stereo not drawn) [S138] | 10.4 (X10E06)/mm3 | 6.5 | –
CN(C)C(CF)CN1c2ccccc2CCc2ccccc21 (stereo not drawn) [S149] | 11.6 (X10E06)/mm3 | 1.2 | –
CNCCCN1c2ccccc2CCc2ccccc21.Cl [S87, Desipramine, reference compound] | 14.7 (X10E06)/mm3 | 1.2 | –
OC(COc1ccccc1)Cn1c2ccncc2c2cc(Br)ccc21 (stereo not drawn) [S183] | 7.7 (X10E06)/mm3 | 4.0 | –
Cc1ccc2c(c1)c1cc(Br)ccc1n2CC(=O)O [S240] | 14.3 (X10E06)/mm3 | 1.7 | –
NCC(O)Cn1c2ccc(Br)cc2c2cc(Br)ccc21 (stereo not drawn) [S20] | 12.7 (X10E06)/mm3 | 1.3 | –
CN(C)C[C@@H](O)CN1c2ccccc2CCc2ccccc21 [S182] | 6.8 (X10E06)/mm3 | 1.1 | –
Oc1cccc(SCC(O)CC2c3ccc(Br)cc3-c3cc(Br)ccc32)c1 (stereo not drawn) [S91] | 8.2 (X10E06)/mm3 | 3.4 | –

SMILES | Neurogenesis # BrdU+ Cells (X10E06)/mm3 Dentate Gyrus [1, 2] | Binding competition (p70 (NAMPT)) | Neurogenesis # BrdU+ Cells (X10E06)/mm3 Dentate Gyrus ([1]; mouse, in vivo)
CN1CCc2c(c3cc(Br)ccc3n2CC(O)COc2ccccc2)C1 (stereo not drawn) [S131] | 7.3 (X10E06)/mm3 | 3.5 | –
OC(CN1c2ccccc2CCc2ccccc21)Cn1c2ccccc2c2ccccc21 (stereo not drawn) [S133] | 10.1 (X10E06)/mm3 | 1.2 | –
O=C(O)c1ccc2[nH]c3ccc(Br)cc3c2c1 [S225] | 15.2 (X10E06)/mm3 | 2.2 | –
N[C@@H](Cc1c[nH]c2ccccc12)C(=O)O [S248] | 10.1 (X10E06)/mm3 | 1.3 | –
CC(=O)NCC(F)Cn1c2ccc(Br)cc2c2cc(Br)ccc21 (stereo not drawn) [S218] | 9.5 (X10E06)/mm3 | 3.2 | –
N[C@@H]1C[C@H]1c1ccccc1 [S118, Parnate, reference compound] | – | 1.3 | 8.3 (X10E06)/mm3
Nc1cccc(SCC(O)Cn2c3ccc(Br)cc3c3cc(Br)ccc32)c1 (stereo not drawn) [S95] | 8.6 (X10E06)/mm3 | 4.6 | –
CN(C)C(=O)COc1ccc(NCC(F)Cn2c3ccc(Br)cc3c3cc(Br)ccc32)cc1 (stereo not drawn) [S70] | 7.4 (X10E06)/mm3 | 2.5 | –
OC(CNc1ccccc1)Cn1c2ccc(I)cc2c2cc(I)ccc21 (stereo not drawn) [S63] | 8.3 (X10E06)/mm3 | 1.5 | –
OC(CCNc1ccccc1)Cn1c2ccc(Br)cc2c2cc(Br)ccc21 (stereo not drawn) [S32] | 13.8 (X10E06)/mm3 | 2.7 | –
CCC(C)N(C)C(=O)c1cc2ccccc2c(-c2ccccc2Cl)n1 (stereo not drawn) [S200, PK11195, reference compound] | 11.1 (X10E06)/mm3 | 1.3 | –
CNC(=O)Cn1c2ccc(Br)cc2c2cc(Br)ccc21 [S214] | 9.9 (X10E06)/mm3 | 1.7 | –
COc1cccc(NC[C@H](O)Cn2c3ccc(Br)cc3c3cc(Br)ccc32)c1 [S16] | 9.2 (X10E06)/mm3 | 3.1 | –
OC(CNc1cccc2ccccc12)Cn1c2ccc(Cl)cc2c2cc(Cl)ccc21 (stereo not drawn) [S184] | 6.7 (X10E06)/mm3 | 2.5 | –
OC(CN1c2ccccc2CCc2ccccc21)CN1c2ccccc2CCc2ccccc21 [S170] | 11.2 (X10E06)/mm3 | 1.5 | –
COc1ccc(SCC(F)Cn2c3ccc(Br)cc3c3cc(Br)ccc32)cc1 (stereo not drawn) [S80] | 13.0 (X10E06)/mm3 | 0.9 | –
N#Cc1cc2c3cc(Br)ccc3n(CC(O)COc3ccccc3)c2cn1 (stereo not drawn) [S192] | 10.5 (X10E06)/mm3 | 4.2 | –
COc1cccc(NCC(O)Cn2c3ccc(Br)cc3c3cc(N=[N+]=[N-])ccc32)c1 (stereo not drawn) [S47] | 10.1 (X10E06)/mm3 | 5.5 | –
FC(COc1ccccc1)Cn1c2c(c3cc(Br)ccc31)CNCC2 (stereo not drawn) [S108] | 7.6 (X10E06)/mm3 | 1.0 | –
